Legend:
[1] = test system: growth cones of DRG neurons; test: Immunolabeling of growth cone cytoskeleton (Ac-α-tubulin, tyrosinated α-tubulin, F-actin); type: cell-based, rat
Description: We tested for this specificity in the adult DRG neurons from above by immunoblotting. […] (A) Number of mitochondria in growth cones after exposing DRG cultures to 10 μM TubA versus vehicle (control) for 1 h is shown as average fold-change in number of mitochondria per growth cone±SEM (n=13 axons across three culture preparations; *, P≤0.05 by one-way ANOVA with Bonferroni post hoc analysis). (B) Representative EMs of Remak bundles (arrowheads) in naive Sciatic nerve and nerves after 2 h vehicle (DMSO) or TubA injection are shown. Arrows indicate mitochondria in the unmyelinated axons. Note that a Schwann cell nucleus (asterisk) is seen in the Remak bundle for DMSO image but not the other two micrographs (scale bar=3 μm). (C) Quantification of number of mitochondria per unmyelinated axon from EM images as in B is shown as average±SEM (n≥5; *****, P≤0.0001 by one-way ANOVA with Bonferroni post hoc analysis). (D-F) Quantification for indicated parameters for mitochondrial transport in sciatic nerve in vivo using tetramethylrhodamine, ethyl ester, perchlorate to visualize mitochondria is shown.
We used a sequential immunostaining approach for simultaneous detection of tyrosinated α-tubulin (by indirect immunofluorescence), Ac-α-tubulin, and β-tubulin (by direct immunofluorescence). Phalloidin staining was also used to detect F-actin. Monoclonal mouse anti-Ac-α-tubulin IgG (6-11-B1; Sigma-Aldrich; T6793) was conjugated to Alexa Fluor 405 using the Zenon Labeling Kit per the manufacturer's instructions (Life Technologies; Z-25013). After fixation and permeabilization, coverslips were incubated with anti-Tyr-α-tubulin IgG (1:100; Sigma-Aldrich; T9028) in 1% blocking buffer overnight at 4° C. in a humidified chamber. […] Coverslips were washed twice with PBS then stained with Actin-Red 555 Ready Probe for 30 min (1:25 dilution of 200 /Uml stock; Thermo Fisher Scientific; R37112). […] Epifluorescence and confocal imaging was used for imaging of fixed samples to obtain protein localization and quantitation data. […]

[2] = test system: distal axons and growth cones of DRG neurons; test: CALI of Mito-KR to ablate mitochondria in distal axons of DRG cultures; type: cell-based, rat
Text: For this, we turned to chromophore-assisted light inactivation (CALI) to ablate mitochondria from distal axons of DRG cultures expressing mitochondrial-targeted Killer Red (Mito-KR) protein. CALI of KR protein generates reactive oxygen species (ROS) to ˜1,000-fold higher than the fluorescent emission eGFP generates (Sano et al., 2014). Increased ROS production upon CALI of Mito-KR protein leads to mitochondrial damage and ablation of mitochondrial function, including the axonal mitochondria targeted in our experiments (Shibuya and Tsujimoto, 2012; Spillane et al., 2013).
For mitochondrial ablation by CALI, DRG cultures expressing Mito-KR and BFP for 48 h were imaged with the same confocal microscope. Mito-KR was activated with an argon laser at 514 nm continuously for 30 s until there was no detectable signal (100% laser power). After activation, 50 μm of the distal axon shaft and the growth cone were imaged every 30 s over 16 min using 585- and 405-nm laser lines (13 and 15.3% power, respectively).
Vesicle trafficking was quantified using differential ImageJ Difference Tracker Plug-in (Andrews et al., 2010). 50-80-μm long unbranched axon segments at approximately the mid-region between growth cone and cell body were analyzed. Kymographs were generated using ImageJ Kymograph Plug-in. […] The distance between the growth tip at end of the post-CALI sequence and the pre-CALI baseline was measured using LAS-X software. Movement of ≥0.5 μm toward the axon shaft was counted as retracted. Fluorescence emission of the Mito-KR post-CALI was analyzed using ImageJ. For normalizing intensities across FRAP image sets, fluorescence intensity at each time point was scaled using the LAS-X FRAP module so that the residual fluorescence signal at t=0 min (post-bleach) was set at 0 and the prebleach intensity was set at 100% for each bleached ROI. For axon shaft FRAP analyses, each 50-μm bleached ROI was divided into […], and the fluorescence intensity recovery was measured as described above. […] A minimum of 75 unmyelinated axons was analyzed for each nerve. […]

[3] = laminin, TubA 10 μM 1 h or siRNA cotransfection, vs vehicle/siControl

CN1CCc2c(c3ccccc3n2Cc2ccc(C(=O)NO)cc2)C1 [TubA, tubastatin]
anti-Ac-α-tubulin immunoreactivity in growth cones ([1]; 10 μM vs control cultures): significant increase in anti-Ac-α-tubulin immunoreactivity in growth cones | tyrosinated α-tubulin in growth cones ([1]; 10 μM vs control cultures): no change in tyrosinated α-tubulin | growth cone signals for F-actin ([1]; TubA-treated cultures): consistently decreased | effect on MAG-Fc-dependent decrease in Mito-KR recovery after CALI ([2]; MAG-Fc + 10 μM TubA): reversed | growth cone retraction after CALI mitochondrial ablation [2, 3]: majority of the TubA-treated cultures showed no growth cone retraction | recovery of Mito-KR fluorescence in ROI after CALI [2, 3]: significant recovery of mitochondrial fluorescence

Reference: patent publication US20210330756A1, “Acetylation of Miro1” (University of South Carolina, priority 2020, published 2021)
